Assay [1] has as its target T1, Voltage-Gated Sodium channel hNav1.2 (Homo sapiens, UniProt Q99250).
T1 construct: Eurofins Discovery (St. Charles, MO, USA)
The experiment in a line: human sodium ion channel cell based automated patch clamp assay, hNav1.2. Here is the method: (§1) Therefore, as a part of the more detailed functional characterization using automated patch clamp method, we tested the influence of (R)-32 on sodium currents mediated by several Navx channels comprising 5 different human subunits, namely, Nav1.1, Nav1.2, Nav1.3, Nav1.6, and Nav1.7, which are involved in both seizure and/or pain modulation.[74],[80],[81] As summarized in Tables S4–S8, (R)-32 starting from 10 μM effectively and in concentration-dependent manner decreased sodium currents mediated by all aforementioned sodium channel subunits. Furthermore, (R)-32 appeared to bind exclusively to sodium channels that are in an inactivated state (see pulse 2 in Tables S4–S8), but not to the channels that are in an open state (pulse 1) (for additional details, see Supporting Information).
(§2) Human sodium ion channels cell based automated patch clamp assay
(§3) Human sodium ion channels cell based automated patch clamp assays: sodium channels exist in, a) a resting or closed state at -120 mV, b) a transient open state that inactivates to c) inactivated state at -10 mV. Sodium current inhibition within 1-2 ms of channel opening at 0 mV is open channel inhibition (pulse 1). In order to completely inactivate the sodium channels and facilitate inactivated state-dependent binding of the drug, the channels were kept at […] ( -10 mV) longer (pulsed for 500 ms) and then stepped back to -120 mV for 10 ms to recover from inactivation into resting or closed state (but the channels that had drug bound to them will not recover from inactivation and will not open) before stepping to -10 mV for 50 ms (pulse 2) to mea sure sodium channels that are available to open. The higher inhibition seen at pulse 2 is due to inactivated state -dependent inhibition. Pulse 1 and 2 are used to investigate drug binding to the open state and inactivated state of the Na channels, respectively. Each concentration of compound is applied for 5 minutes. The results obtained for (R)-32 are summerized in Tables S4–S8. […]
(§4) Compound Concentration Measurement % Inhibition
(§5) Data interpretation: Results showing inhibition greater than 50% are considered to represent significant effects of test compound and have been bolded for (R)-32 for better visualization. The studies were carried out in Eurofins Discovery (St. Charles, MO, USA).

Assay [2] has as its target T2, Voltage-Gated Sodium channel hNav1.3 (Homo sapiens, UniProt Q9NY46).
T2 construct: Eurofins Discovery (St. Charles, MO, USA)
As to the kind of experiment: human sodium ion channel cell based automated patch clamp assay, hNav1.3. On the procedure:
as §1, §2, §3, §4, §5
On the technique in general: Patch clamp records ionic current or voltage across a cell membrane.

Assay [3] deals with formalin-induced pain, mice. As to the kind of experiment: formalin test. It is filed as in vivo, mouse. The conditions noted are these: 100 mg/kg i.p.
Assay [4] deals with STZ-induced tactile allodynia, mice. As to the kind of experiment: streptozotocin (STZ)-induced peripheral neuropathy, von Frey test. It is filed as in vivo, mouse. The note with it: 21 days after STZ. The text has this:
To test whether the compounds are active in the neuropathic pain resulting from another mechanism of neuronal injury, we tested them in streptozotocin (STZ)-induced neuropathy. STZ is the commonly used experimental model to induce diabetic neuropathy. Streptozotocin is toxic to insulin-producing beta cells in the pancreas and selectively damages these cells, leading to insulin deficiency, which subsequently results in chronic hyperglycemia. Hyperglycemia is a major factor in the development of diabetic neuropathy. Elevated blood glucose levels increase its uptake by nerve cells, which results in metabolic and oxidative stress. Moreover, hyperglycemia leads to the formation of advanced glycation end products (AGEs), which are abnormal protein structures. AGEs can accumulate in neuronal tissue and contribute to nerve dysfunction.[63] […] Additionally, STZ-induced neuropathic pain may also involve alterations in the levels of neurotransmitters such as glutamate and GABA.[64],[65]
Each animal was tested only once. […] Behavioral measurements were observed by trained observers.

For the next assay, the target named is T3, TRPM8 (h) (Homo sapiens, UniProt Q7Z2W7).
T3 construct: Eurofins
The experiment in a line: TRPM8 (h) (antagonist effect). The note with it: HEK293, human recombinant HEK-293 cell, read-out: % inhibition of control agonist response. It is filed as cell-based. Here is the method:
(§6) Using previously described testing methodologies, binding/functional tests were conducted on a commercial basis at Eurofins Laboratories (Poitiers, France) and Eurofins Panlabs Discovery Services Taiwan, Ltd. (New Taipei City, Taiwan); see Table S9 for more information.
(§7) Table S9. Radioligand binding and functional assays. […]
TRPM8 (h) (antagonist effect) […]
(§8) Assays were performed commercially in Eurofins Laboratories (Poitiers, France) or Eurofins Panlabs Discovery Services
(§9) Taiwan, Ltd. (New Taipei City, Taiwan).

The target of the next assay is T4, TRPA1 (h) (Homo sapiens, UniProt O75762).
T4 construct: Eurofins
T4 sequence (O75762 whole entry): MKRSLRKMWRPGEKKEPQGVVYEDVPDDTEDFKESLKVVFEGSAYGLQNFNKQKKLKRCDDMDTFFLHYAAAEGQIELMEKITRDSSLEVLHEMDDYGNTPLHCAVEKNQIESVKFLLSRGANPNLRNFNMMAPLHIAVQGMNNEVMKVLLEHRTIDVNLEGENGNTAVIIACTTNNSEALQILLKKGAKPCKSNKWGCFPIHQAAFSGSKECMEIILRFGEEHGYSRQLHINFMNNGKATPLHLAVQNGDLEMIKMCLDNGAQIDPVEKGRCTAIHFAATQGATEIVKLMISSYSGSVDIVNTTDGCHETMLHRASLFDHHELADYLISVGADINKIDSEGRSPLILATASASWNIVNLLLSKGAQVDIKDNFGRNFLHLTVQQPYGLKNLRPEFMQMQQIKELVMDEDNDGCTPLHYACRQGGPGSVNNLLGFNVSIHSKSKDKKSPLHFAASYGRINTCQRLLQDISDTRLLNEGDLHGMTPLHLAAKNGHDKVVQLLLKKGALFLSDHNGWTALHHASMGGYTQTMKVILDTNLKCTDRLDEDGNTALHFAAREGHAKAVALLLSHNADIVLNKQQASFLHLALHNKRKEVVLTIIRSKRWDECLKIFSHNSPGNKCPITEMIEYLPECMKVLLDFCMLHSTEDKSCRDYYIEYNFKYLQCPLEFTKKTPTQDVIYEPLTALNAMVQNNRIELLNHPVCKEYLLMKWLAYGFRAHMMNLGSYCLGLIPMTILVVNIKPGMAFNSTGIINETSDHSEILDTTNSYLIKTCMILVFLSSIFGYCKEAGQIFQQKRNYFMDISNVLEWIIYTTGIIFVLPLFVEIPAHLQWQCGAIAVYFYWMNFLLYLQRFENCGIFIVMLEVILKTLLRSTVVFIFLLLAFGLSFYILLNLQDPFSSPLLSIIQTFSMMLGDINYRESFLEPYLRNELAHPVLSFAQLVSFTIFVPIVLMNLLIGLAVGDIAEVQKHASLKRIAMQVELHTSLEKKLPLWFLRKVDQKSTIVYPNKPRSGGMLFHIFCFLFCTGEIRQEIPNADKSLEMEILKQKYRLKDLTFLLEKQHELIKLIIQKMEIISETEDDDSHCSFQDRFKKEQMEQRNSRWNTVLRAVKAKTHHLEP
The experiment in a line: TRPA1 (h) cell based antagonist calcium flux assay. The note with it: HEK293, human recombinant HEK-293 cell, read-out: % inhibition of control agonist response. On the procedure:
as §6, §7
TRPA1 (h) transient potential ion channel cell based antagonist calcium flux assay […]
as §8, §9
(In general: Calcium flux is commonly read through the fluorescence of an indicator in the cells.)

The test system of assay [5] is OXPT-induced tactile allodynia, mice. As to the kind of experiment: oxaliplatin (OXPT)-induced peripheral neuropathy, von Frey test.
Procedure: In experimental conditions, these mechanisms trigger mechanical allodynia, which can be observed as a decrease in the pain threshold, as assessed by the von Frey test.[37]
We tested (R)-31 at the doses of 50, 75, and 100 mg/kg (Figure 7C).
The experimental groups consisted of 10 adult male Albino Swiss mice (CD-1, 18–25 g). Each animal was tested only once. Immediately after the assay, the animals were sacrificed by cervical dislocation. Behavioral measurements were observed by trained observers. […] The tested materials were administered intraperitoneally half an hour before the test, after being suspended in a 1% aqueous solution of Tween-80. 30 min before the test, the animals in the control group (negative control) received an appropriate dose of the vehicle (Tween-80, 1% aqueous solution, i.p.).
Where [6] appears, read: hNav1.2, Pulse 1 (open state), read-out: % Inhibition Mean.
Setting [7] is: hNav1.2, Pulse 1 (open state), read-out: % Inhibition n1.
The mark [8] stands for this setting: hNav1.2, Pulse 1 (open state), read-out: % Inhibition n2.
The mark [9] stands for this setting: hNav1.2, Pulse 2 (inactivated state), read-out: % Inhibition Mean.
Setting [10] is: hNav1.2, Pulse 2 (inactivated state), read-out: % Inhibition n1.
Where [11] appears, read: hNav1.2, Pulse 2 (inactivated state), read-out: % Inhibition n2.
The mark [12] stands for this setting: hNav1.3, Pulse 1 (open state), read-out: % Inhibition Mean.
Where [13] appears, read: hNav1.3, Pulse 1 (open state), read-out: % Inhibition n1.
The mark [14] stands for this setting: hNav1.3, Pulse 1 (open state), read-out: % Inhibition n2.
Where [15] appears, read: hNav1.3, Pulse 2 (inactivated state), read-out: % Inhibition Mean.
The mark [16] stands for this setting: hNav1.3, Pulse 2 (inactivated state), read-out: % Inhibition n1.
Setting [17] is: hNav1.3, Pulse 2 (inactivated state), read-out: % Inhibition n2.

One may read the inhibition as the drop in the measured response relative to a control, in per cent.

Where two headings read alike, the source gives them in different places.

T2 sequence (Q9NY46 whole entry): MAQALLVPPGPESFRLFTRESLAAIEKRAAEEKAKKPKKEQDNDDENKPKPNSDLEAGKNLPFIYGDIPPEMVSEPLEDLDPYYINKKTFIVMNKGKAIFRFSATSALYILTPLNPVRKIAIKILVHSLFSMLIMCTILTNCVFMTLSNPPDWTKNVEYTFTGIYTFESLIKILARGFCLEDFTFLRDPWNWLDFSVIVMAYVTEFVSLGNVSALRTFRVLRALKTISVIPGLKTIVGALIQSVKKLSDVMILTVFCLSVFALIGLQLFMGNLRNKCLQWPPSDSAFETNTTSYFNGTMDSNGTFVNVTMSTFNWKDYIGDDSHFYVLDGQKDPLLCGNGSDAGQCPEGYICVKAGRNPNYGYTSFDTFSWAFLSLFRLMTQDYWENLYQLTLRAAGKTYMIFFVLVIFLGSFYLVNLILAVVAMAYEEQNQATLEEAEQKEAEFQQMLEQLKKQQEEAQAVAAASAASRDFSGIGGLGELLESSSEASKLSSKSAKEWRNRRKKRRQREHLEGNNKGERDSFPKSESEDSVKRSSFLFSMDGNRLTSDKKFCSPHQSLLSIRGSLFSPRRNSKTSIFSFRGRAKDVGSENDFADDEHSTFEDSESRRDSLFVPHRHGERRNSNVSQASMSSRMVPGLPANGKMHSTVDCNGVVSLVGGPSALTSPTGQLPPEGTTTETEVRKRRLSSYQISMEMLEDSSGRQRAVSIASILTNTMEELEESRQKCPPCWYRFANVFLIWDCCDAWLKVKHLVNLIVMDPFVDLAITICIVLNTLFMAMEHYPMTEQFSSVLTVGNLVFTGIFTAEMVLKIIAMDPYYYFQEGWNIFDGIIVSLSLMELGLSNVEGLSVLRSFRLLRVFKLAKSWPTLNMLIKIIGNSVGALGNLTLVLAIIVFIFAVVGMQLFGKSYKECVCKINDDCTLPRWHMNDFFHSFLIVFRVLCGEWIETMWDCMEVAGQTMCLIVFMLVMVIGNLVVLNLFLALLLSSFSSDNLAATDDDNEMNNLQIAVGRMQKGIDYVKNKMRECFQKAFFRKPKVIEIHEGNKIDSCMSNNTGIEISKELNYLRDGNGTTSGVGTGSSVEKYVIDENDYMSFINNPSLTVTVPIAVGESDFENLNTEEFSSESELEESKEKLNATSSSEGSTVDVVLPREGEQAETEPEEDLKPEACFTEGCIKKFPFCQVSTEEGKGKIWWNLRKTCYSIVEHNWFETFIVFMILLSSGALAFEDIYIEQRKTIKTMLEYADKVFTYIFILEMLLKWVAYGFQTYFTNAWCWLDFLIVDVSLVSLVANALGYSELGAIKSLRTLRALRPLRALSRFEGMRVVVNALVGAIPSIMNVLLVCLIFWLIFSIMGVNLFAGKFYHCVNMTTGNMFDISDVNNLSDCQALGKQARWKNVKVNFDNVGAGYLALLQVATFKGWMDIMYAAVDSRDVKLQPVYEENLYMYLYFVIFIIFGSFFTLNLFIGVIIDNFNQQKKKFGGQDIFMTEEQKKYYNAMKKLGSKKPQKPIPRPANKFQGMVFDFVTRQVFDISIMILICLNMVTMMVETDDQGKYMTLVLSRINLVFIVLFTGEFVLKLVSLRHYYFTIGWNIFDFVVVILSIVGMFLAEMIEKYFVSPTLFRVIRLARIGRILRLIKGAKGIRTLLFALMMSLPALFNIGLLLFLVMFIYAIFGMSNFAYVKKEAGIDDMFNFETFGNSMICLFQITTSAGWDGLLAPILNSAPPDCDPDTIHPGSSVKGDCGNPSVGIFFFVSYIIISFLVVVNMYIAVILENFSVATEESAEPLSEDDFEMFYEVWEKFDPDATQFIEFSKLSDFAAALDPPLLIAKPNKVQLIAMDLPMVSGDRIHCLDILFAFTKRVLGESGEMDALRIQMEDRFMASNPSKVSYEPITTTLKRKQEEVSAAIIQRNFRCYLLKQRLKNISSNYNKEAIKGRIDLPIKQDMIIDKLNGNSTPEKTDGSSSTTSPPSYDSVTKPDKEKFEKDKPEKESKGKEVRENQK
T1 sequence (Q99250 whole entry): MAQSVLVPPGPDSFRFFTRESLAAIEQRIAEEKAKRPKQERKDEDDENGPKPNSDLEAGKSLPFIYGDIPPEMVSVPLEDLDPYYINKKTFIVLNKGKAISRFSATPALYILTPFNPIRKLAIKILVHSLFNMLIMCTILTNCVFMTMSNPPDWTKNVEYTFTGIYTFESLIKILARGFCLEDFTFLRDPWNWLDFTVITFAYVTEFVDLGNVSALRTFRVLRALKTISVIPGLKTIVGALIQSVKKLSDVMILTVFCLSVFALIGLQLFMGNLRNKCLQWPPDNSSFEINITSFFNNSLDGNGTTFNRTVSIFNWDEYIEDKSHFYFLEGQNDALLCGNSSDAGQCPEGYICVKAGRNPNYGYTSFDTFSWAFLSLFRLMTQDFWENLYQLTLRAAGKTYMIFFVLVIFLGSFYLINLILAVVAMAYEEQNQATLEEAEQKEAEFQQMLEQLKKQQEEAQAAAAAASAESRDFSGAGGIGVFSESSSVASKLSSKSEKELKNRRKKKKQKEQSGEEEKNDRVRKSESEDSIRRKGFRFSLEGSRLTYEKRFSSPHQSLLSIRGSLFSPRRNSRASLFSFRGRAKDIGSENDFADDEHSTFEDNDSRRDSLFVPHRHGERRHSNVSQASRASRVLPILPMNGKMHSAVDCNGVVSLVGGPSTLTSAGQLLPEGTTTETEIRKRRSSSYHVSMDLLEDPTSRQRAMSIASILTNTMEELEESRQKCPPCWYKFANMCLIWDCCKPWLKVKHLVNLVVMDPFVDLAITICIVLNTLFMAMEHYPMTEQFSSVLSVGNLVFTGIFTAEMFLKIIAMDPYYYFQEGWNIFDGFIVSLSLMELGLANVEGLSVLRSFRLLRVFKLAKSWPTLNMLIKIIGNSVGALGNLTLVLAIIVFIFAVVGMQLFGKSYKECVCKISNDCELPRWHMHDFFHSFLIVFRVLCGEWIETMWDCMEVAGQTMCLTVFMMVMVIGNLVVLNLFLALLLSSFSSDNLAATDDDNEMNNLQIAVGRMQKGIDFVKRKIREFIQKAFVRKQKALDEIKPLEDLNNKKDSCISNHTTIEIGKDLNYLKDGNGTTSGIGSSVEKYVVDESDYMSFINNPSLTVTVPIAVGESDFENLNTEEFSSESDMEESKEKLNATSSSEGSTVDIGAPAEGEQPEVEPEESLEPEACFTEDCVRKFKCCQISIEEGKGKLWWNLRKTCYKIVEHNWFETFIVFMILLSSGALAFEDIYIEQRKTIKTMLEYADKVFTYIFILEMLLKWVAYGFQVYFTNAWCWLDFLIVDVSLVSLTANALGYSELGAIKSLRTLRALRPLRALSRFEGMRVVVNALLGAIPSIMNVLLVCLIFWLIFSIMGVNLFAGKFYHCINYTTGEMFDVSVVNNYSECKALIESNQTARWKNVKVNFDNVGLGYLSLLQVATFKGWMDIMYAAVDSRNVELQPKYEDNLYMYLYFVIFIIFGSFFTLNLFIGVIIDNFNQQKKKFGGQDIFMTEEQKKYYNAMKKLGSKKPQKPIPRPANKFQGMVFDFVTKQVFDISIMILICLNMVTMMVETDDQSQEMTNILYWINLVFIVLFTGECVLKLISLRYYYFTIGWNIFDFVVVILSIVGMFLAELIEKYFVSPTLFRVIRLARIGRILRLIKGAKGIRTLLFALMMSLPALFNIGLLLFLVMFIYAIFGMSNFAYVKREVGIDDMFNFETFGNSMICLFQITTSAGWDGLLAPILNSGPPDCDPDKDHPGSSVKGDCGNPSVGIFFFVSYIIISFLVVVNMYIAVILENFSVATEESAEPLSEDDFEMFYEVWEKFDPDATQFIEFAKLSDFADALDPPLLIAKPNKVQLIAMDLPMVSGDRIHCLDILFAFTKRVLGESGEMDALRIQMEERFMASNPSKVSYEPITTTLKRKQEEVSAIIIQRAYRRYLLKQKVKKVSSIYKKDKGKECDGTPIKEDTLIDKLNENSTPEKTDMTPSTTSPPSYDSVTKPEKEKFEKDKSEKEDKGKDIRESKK

With `CCCCNc1ccc(C(=O)OCCN(C)C)cc1` [Tetracaine, reference compound], the inhibition at 3 µM in assay [1] (setting [6]) is -2.64%; in assay [1] (setting [7]) it was 5.99%; in assay [1] (setting [8]), -11.3%; in assay [1] (setting [9]) it was 54.9%; in assay [1] (setting [10]), 55.2%; in assay [1] (setting [11]), 54.7%. Also, the inhibition at 3 µM was 0.75% in assay [2] (setting [12]); 3.41% in assay [2] (setting [13]); -1.92% in assay [2] (setting [14]); 56.1% in assay [2] (setting [15]); 56.1% in assay [2] (setting [16]); 56.1% in assay [2] (setting [17]). The inhibition at 30 µM turned out to be 14% in assay [1] (setting [6]); 19% in assay [1] (setting [7]); 8.92% in assay [1] (setting [8]); 99.6% in assay [1] (setting [9]); 98.8% in assay [1] (setting [10]); 100% in assay [1] (setting [11]). Moreover, the inhibition at 30 µM is 9.85% in assay [2] (setting [12]); 10.3% in assay [2] (setting [13]); 9.44% in assay [2] (setting [14]); 100% in assay [2] (setting [15]); 98.9% in assay [2] (setting [16]); 101% in assay [2] (setting [17]). The inhibition at 300 µM is 70% in assay [1] (setting [6]); 64.9% in assay [1] (setting [7]); 75.1% in assay [1] (setting [8]); 101% in assay [1] (setting [9]); 99.9% in assay [1] (setting [10]); 101% in assay [1] (setting [11]). Also, the inhibition at 300 µM is 84.8% in assay [2] (setting [12]); 81.8% in assay [2] (setting [13]); 87.8% in assay [2] (setting [14]); 101% in assay [2] (setting [15]); 101% in assay [2] (setting [16]); 102% in assay [2] (setting [17]).
On to `CC(=O)N[C@@H](C(=O)N1CCN(c2cccc(C(F)(F)F)c2)CC1)c1ccccc1` [(R)-31, (R)-N-(2-Oxo-1-phenyl-2-(4-(3-(trifluoromethyl)phenyl)piperazin-1-yl)ethyl)acetamide], for which the “nociceptive response, acute phase of the formalin test” value in assay [3] (0–5 min after formalin) is given as “significantly attenuated the nociceptive response”. Moreover, the “nociceptive response, late phase of the formalin test” value in assay [3] (15–30 min after formalin) was “significantly attenuated the nociceptive response”. For the same compound, the “pain threshold in STZ-induced neuropathy, % of the baseline” value is “did not observe any significant effects” in assay [4] (25 mg/kg i.p.), 123% in assay [4] (50 mg/kg i.p.) and 178% in assay [4] (100 mg/kg i.p.). Moreover, the results for the inhibition at 10 µM on TRPM8 (h) and at TRPA1 (h) were 4.6% and 13.3%, respectively. For the same compound, the figures for the “pain threshold, early phase (3 h after OXPT), % of the initial value/baseline” value in assay [5] (50 mg/kg i.p.) and in assay [5] (75 mg/kg i.p.) were 114.5% and 93%, respectively. Moreover, the “pain threshold, late phase (7 days after OXPT), % of the baseline” value in assay [5] (75 mg/kg i.p.) is 87%; in assay [5] (100 mg/kg i.p.), 77%. For the same compound, in assay [5] (100 mg/kg i.p.), the “pain threshold, early phase (3 h after OXPT), % of the initial value” is reported as 78%.

The record behind these values is paper PMC11378297, “Discovery and Profiling of New Multimodal Phenylglycinamide Derivatives as Potent Antiseizure and Antinociceptive Drug Candidates” (ACS Chemical Neuroscience, 2024).
